IC50 data for 66 molecules are collected here from patent publication US9346769B2, “Tetrazolones as inhibitors of fatty acid synthase” (Infinity Pharmaceuticals, Inc., priority 2010, dated 2016).

What is called IC50 is the point on the concentration scale where inhibition reaches its midpoint. Read a high IC50 as lower potency.

A value given as a limit tells only on which side of the number the result lay.

The experiment deals with T1, human FASN (Homo sapiens, UniProt P49327).
T1 construct: was purified from SKBR3 cells using procedures modified from those in Jayakumar et al; endogenous in cells; host or cells: SKBR3 human breast cancer cells (ATCC); Endogenous enzyme purified by ammonium sulfate precipitation and a mono Q column
Kind of experiment: FASN NADPH Consumption Assay. To be noted: human FASN purified from SKBR3 cells; starred symbols. Type of experiment: biochemical. In outline:
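Native human FASN purified from SKBR3 cells (60 nM final) preincubated 30 min at 37 °C with compound (2.4 nM–40 μM, 4% DMSO) in pH 7.0 phosphate buffer with 5 mM DTT. Reaction started with 0.2 mM NADPH, 50 μM butyryl-CoA, 0.5 mM malonyl-CoA; NADPH consumption followed kinetically by fluorescence (ex 340/em 460 nm); IC50 from logistic fit.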

T1 sequence (P49327 whole entry): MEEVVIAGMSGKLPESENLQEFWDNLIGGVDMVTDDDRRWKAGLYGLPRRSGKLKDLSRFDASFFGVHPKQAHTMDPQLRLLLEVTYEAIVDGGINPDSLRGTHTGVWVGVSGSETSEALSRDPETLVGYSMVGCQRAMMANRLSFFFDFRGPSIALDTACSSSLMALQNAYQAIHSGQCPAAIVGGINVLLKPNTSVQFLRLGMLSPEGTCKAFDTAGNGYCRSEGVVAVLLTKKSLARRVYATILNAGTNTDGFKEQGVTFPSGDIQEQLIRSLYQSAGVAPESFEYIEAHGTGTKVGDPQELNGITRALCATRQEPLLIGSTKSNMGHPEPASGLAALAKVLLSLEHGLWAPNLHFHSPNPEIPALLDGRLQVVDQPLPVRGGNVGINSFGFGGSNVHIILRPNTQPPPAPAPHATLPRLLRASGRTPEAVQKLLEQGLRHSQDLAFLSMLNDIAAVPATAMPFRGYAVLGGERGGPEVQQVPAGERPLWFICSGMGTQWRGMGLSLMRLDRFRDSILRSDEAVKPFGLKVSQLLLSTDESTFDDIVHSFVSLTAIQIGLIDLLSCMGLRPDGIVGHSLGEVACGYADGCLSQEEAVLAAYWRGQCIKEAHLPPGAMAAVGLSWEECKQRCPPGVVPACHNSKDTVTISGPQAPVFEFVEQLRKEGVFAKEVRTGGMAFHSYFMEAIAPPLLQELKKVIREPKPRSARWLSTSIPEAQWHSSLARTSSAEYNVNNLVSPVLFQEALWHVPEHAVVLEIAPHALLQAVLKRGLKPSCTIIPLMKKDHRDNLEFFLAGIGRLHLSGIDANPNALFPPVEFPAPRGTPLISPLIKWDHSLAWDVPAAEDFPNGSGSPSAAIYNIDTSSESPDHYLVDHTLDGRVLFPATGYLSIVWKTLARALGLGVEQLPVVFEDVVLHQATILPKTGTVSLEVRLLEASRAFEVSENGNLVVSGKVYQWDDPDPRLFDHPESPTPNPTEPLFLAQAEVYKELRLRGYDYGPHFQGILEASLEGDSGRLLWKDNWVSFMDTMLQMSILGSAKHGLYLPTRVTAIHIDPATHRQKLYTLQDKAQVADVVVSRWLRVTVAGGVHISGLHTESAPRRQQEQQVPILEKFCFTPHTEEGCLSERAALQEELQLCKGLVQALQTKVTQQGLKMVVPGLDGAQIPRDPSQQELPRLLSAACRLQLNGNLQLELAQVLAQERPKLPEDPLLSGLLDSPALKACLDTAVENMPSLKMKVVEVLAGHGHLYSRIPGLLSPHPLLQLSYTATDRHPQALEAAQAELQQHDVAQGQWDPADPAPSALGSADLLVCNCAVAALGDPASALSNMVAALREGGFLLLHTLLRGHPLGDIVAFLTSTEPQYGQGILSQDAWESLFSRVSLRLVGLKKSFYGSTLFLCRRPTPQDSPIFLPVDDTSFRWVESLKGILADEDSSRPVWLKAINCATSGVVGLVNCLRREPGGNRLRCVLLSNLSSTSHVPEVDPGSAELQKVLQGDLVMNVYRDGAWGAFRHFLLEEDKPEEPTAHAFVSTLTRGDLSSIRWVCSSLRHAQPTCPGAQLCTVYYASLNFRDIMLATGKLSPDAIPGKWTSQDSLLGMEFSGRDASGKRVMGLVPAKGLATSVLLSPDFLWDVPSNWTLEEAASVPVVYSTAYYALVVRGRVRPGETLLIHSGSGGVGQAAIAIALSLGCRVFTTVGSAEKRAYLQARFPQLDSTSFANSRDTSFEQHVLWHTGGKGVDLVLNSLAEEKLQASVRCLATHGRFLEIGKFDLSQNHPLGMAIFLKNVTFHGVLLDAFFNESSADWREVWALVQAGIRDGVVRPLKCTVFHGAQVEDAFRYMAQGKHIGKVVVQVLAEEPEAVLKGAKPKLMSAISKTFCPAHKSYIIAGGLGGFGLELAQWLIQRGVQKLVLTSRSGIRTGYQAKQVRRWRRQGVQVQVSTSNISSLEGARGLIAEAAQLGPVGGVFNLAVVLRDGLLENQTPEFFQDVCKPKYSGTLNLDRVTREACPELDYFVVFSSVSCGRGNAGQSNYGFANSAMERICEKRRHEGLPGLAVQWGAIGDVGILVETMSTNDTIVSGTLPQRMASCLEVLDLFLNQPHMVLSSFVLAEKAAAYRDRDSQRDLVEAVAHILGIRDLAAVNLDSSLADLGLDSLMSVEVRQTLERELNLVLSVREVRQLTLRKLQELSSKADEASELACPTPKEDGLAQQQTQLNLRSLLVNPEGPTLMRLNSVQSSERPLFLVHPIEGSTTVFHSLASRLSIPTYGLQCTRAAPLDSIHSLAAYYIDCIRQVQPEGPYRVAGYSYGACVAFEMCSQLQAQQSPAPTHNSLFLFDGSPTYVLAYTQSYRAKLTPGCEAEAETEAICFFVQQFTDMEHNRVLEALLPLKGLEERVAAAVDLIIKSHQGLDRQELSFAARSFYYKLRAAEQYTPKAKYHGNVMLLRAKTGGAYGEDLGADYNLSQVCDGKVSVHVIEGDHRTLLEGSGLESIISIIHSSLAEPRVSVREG

On to `C=CCN(C(=O)n1nnn(-c2ccccc2Oc2ccccc2)c1=O)C1CCN(C(=O)OC(C)(C)C)CC1`, for which the IC50 is 1 to 10 µM. The molecule `CCN(C(=O)n1nnn(-c2c(Cl)cccc2Cl)c1=O)C1CCN(C(=O)CCC(=O)O)CC1` returned an IC50 of 1 to 10 µM. For the molecule `CCN(C(=O)n1nnn(-c2c(Cl)cccc2Cl)c1=O)C1CCN(C)CC1`, the IC50 is over 10 µM. Take `CCN(C(=O)n1nnn(-c2c(Cl)cccc2Cl)c1=O)C1CCN(S(C)(=O)=O)CC1`: the IC50 lay in the range of 1 to 10 µM. As for `CCN(C(=O)n1nnn(-c2c(Cl)cccc2Cl)c1=O)C1CCN(C(C)=O)CC1`, the IC50 fell in the range of 1 to 10 µM. `CN1C2CCC1CC(N(CCc1ccccc1)C(=O)n1nnn(-c3c(Cl)cccc3Cl)c1=O)C2` (stereo not drawn) had an IC50 of over 10 µM.

In turn, `CCNC(=O)N1CCCC(N(CC)C(=O)n2nnn(-c3c(Cl)cccc3Cl)c2=O)C1` (stereo not drawn) displayed an IC50 of 1 to 10 µM. As to `CCN(C(=O)n1nnn(-c2c(Cl)cccc2Cl)c1=O)C1CCCN(C(C)=O)C1` (stereo not drawn), the IC50 lay within 1 to 10 µM. Molecule `CCN(C(=O)n1nnn(-c2c(Cl)cccc2Cl)c1=O)C1CCCN(C(=O)CCC(=O)O)C1` (stereo not drawn) had an IC50 of 1 to 10 µM. The figure for `CCN(C(=O)n1nnn(-c2c(Cl)cccc2Cl)c1=O)C1CCCN(C(=O)OC(C)(C)C)C1` (stereo not drawn) is 1 to 10 µM; for `CCOC(=O)N1CCCC(N(CC)C(=O)n2nnn(-c3c(Cl)cccc3Cl)c2=O)C1` (stereo not drawn) it is 1 to 10 µM. Molecule `CCN(C(=O)n1nnn(-c2c(Cl)cccc2Cl)c1=O)C1CCCN(C(=O)Cc2ccccc2)C1` (stereo not drawn) yielded an IC50 of 1 to 10 µM. `CCN(C(=O)n1nnn(-c2c(Cl)cccc2Cl)c1=O)C1CCCN(S(C)(=O)=O)C1` (stereo not drawn) yielded an IC50 of 1 to 10 µM. Then `CCN(C(=O)n1nnn(-c2c(Cl)cccc2Cl)c1=O)C1CCOC(C)(C)C1` (stereo not drawn), with 1 to 10 µM; and `O=C(NC1CCCCC1)n1nnn(-c2ccccc2)c1=O`, with over 10 µM. The figure for `CCN(C(=O)n1nnn(-c2ccccc2)c1=O)C1CCCCC1` is over 10 µM; for `CCN(C(=O)n1nnn(-c2ccccc2SC)c1=O)C1CCCCC1` it is 1 to 10 µM; for `CCN(C(=O)n1nnn(-c2ccccc2Oc2ccccc2)c1=O)C1CCCCC1` it is 1 to 10 µM. Then `CCN(C(=O)n1nnn(-c2c(Cl)cccc2Cl)c1=O)C1CCCC(C(=O)NCC(N)=O)C1` (stereo not drawn), with 1 to 10 µM; and `CC(=O)NCCCN(C(=O)n1nnn(-c2c(Cl)cccc2Cl)c1=O)C1CCCCC1`, with 1 to 10 µM; and `CC(C)C[C@@H](NC=O)C(=O)NCCCN(C(=O)n1nnn(-c2c(Cl)cccc2Cl)c1=O)C1CCCCC1`, with over 10 µM. Turning to `CCN(C(=O)n1nnn(-c2c(Cl)cccc2Cl)c1=O)C1CCCC(C(=O)O)C1` (stereo not drawn), the IC50 lay within 1 to 10 µM. Molecule `CNC(=O)CN(C(=O)n1nnn(-c2c(Cl)cccc2Cl)c1=O)C1CCCCC1` showed an IC50 of 1 to 10 µM. In turn, `CC(=O)NCCN(C(=O)n1nnn(-c2c(Cl)cccc2Cl)c1=O)C1CCCCC1` registered an IC50 of over 10 µM. Then `CCN(C(=O)n1nnn(-c2c(Cl)cccc2Cl)c1=O)[C@@H]1CCC[C@@H](C(=O)N2CCOCC2)C1`, with 1 to 10 µM; and `CCN(C(=O)n1nnn(-c2c(Cl)cccc2Cl)c1=O)C1CCC(C(=O)NC(C(N)=O)c2ccccc2)CC1` (stereo not drawn), with 1 to 10 µM.

Molecule `CCN(C(=O)n1nnn(-c2c(Cl)cccc2Cl)c1=O)C1CCC(C(=O)NC)CC1` (stereo not drawn) came in with an IC50 of 1 to 10 µM. In turn, `O=CNCC(=O)NCCCN(C(=O)n1nnn(-c2c(Cl)cccc2Cl)c1=O)C1CCCCC1` showed an IC50 of 1 to 10 µM. As for `O=C(N(Cc1ccco1)C1CCCCC1)n1nnn(-c2c(Cl)cccc2Cl)c1=O`, the IC50 was over 10 µM.

Regarding `Cc1nonc1NC(=O)CN(C(=O)n1nnn(-c2c(Cl)cccc2Cl)c1=O)C1CCCCC1`, the IC50 is over 10 µM.

As for `CCN(C(=O)n1nnn(-c2c(Cl)cccc2Cl)c1=O)C1CCC(C(=O)N2CCN(C)CC2)CC1` (stereo not drawn), the IC50 was over 10 µM. `CCNC(=O)NCCCN(C(=O)n1nnn(-c2c(Cl)cccc2Cl)c1=O)C1CCCCC1` displayed an IC50 of 1 to 10 µM. For `CCN(C(=O)n1nnn(-c2c(Cl)cccc2Cl)c1=O)C1CCC(N(C)C)CC1` (stereo not drawn), the IC50 is over 10 µM. Then `CCN(C(=O)n1nnn(-c2c(C)cccc2C)c1=O)C1CCCCC1`, with over 10 µM.

As for `CCN(C(=O)n1nnn(-c2c(Cl)cccc2C(F)(F)F)c1=O)C1CCCCC1`, the IC50 was over 10 µM.

For the molecule `CCN(C(=O)n1nnn(-c2c(C)cccc2Cl)c1=O)C1CCCCC1`, the IC50 lay in the range of 1 to 10 µM.

`COc1cccc(F)c1-n1nnn(C(=O)N(C2CCCCC2)C2CCCCC2)c1=O` had an IC50 of 1 to 10 µM.

`CCN(C(=O)n1nnn(-c2c(C)cccc2C(C)(C)C)c1=O)C1CCCCC1`: the IC50 is over 10 µM. The figure for `CCCCc1ccc(-n2nnn(C(=O)N(CC)C3CCCCC3)c2=O)c(C)c1` is over 10 µM; for `CCN(C(=O)n1nnn(-c2ccc(Cl)cc2Cl)c1=O)C1CCCCC1` it is 1 to 10 µM.

The molecule `CCN(C(=O)n1nnn(-c2ccc([N+](=O)[O-])cc2Cl)c1=O)C1CCCCC1` showed an IC50 of over 10 µM. Molecule `CCN(C(=O)n1nnn(-c2ccc(F)cc2F)c1=O)C1CCCCC1` registered an IC50 of 1 to 10 µM. The molecule `CCN(C(=O)n1nnn(-c2ccc(C(F)(F)F)cc2Cl)c1=O)C1CCCCC1` yielded an IC50 of over 10 µM. In turn, `CCN(C(=O)n1nnn(-c2ccc(Br)cc2Br)c1=O)C1CCCCC1` yielded an IC50 of 1 to 10 µM. In turn, `CCN(C(=O)n1nnn(-c2cc(Cl)ccc2Cl)c1=O)C1CCCCC1` gave a concentration for half-maximal inhibition (IC50) of 1 to 10 µM.

`CCN(C(=O)n1nnn(-c2cc(F)ccc2F)c1=O)C1CCCCC1` returned an IC50 of 1 to 10 µM. As to `CCN(C(=O)n1nnn(-c2cccc(Cl)c2Cl)c1=O)C1CCCCC1`, the IC50 is 1 to 10 µM. `CCN(C(=O)n1nnn(-c2cccc3nsnc23)c1=O)C1CCCCC1` returned a 50% inhibitory concentration (IC50) of 1 to 10 µM.

Turning to `CCN(C(=O)n1nnn(-c2c(C)cc(C)cc2C)c1=O)C1CCCCC1`, the half-maximal inhibitory concentration (IC50) was over 10 µM. Then `CCN(C(=O)n1nnn(-c2c(Cl)cc(Cl)cc2Cl)c1=O)C1CCCCC1`, with 1 to 10 µM; and `CCN(C(=O)n1nnn(-c2ccc(F)c(F)c2F)c1=O)C1CCCCC1`, with over 10 µM. For `CN(C)N(C(=O)n1nnn(-c2ccccc2F)c1=O)C1=CCCCC1`, the IC50 was in the range of 0.25 to 1 µM. On to `CN(C)N(C(=O)n1nnn(-c2ccccc2Br)c1=O)C1=CCCCC1`, for which the IC50 lay in the range of 0.25 to 1 µM. The figure for `CN(C)N(C(=O)n1nnn(-c2ccccc2Cl)c1=O)C1=CCCCC1` is 1 to 10 µM. Consider `CN(C)N(C(=O)n1nnn(-c2cccc(Cl)c2)c1=O)C1=CCCCC1`, for which the IC50 is 1 to 10 µM.

On to `CCNC(=O)n1nnn(-c2ccccc2)c1=O`, for which the IC50 was over 10 µM. As to `C/C=C/C/C=C/CCCN(CCC)C(=O)n1nnn(-c2ccccc2Cl)c1=O`, the IC50 was in the range of 0.25 to 1 µM.

`CCCCCCCCCCCCN(C)C(=O)n1nnn(-c2ccccc2Cl)c1=O` yielded an IC50 of 0.25 to 1 µM. Molecule `CCN(CC)C(=O)n1nnn(-c2ccccc2Cl)c1=O` gave an IC50 of 1 to 10 µM. The figure for `C/C=C/C/C=C/CCCN(C)C(=O)n1nnn(-c2ccccc2Cl)c1=O` is 1 to 10 µM; for `CCN(C)C(=O)n1nnn(-c2ccccc2Cl)c1=O` it is over 10 µM; for `CCCN(C)C(=O)n1nnn(-c2ccccc2Cl)c1=O` it is over 10 µM. For `CCCCCCN(C)C(=O)n1nnn(-c2ccccc2Cl)c1=O`, the IC50 lay within 1 to 10 µM. In turn, `CC(C)N(C(=O)n1nnn(-c2ccccc2Cl)c1=O)C(C)C` registered an IC50 of over 10 µM.

`CCN(C(=O)n1nnn(-c2ccccc2Cl)c1=O)C(C)(C)C` showed an IC50 of over 10 µM. Then `CCN(CCOC(=O)[C@H](CC(C)C)NC=O)C(=O)n1nnn(-c2c(Cl)cccc2Cl)c1=O`, with 1 to 10 µM.
